Values joined by “and” are separate entries in the source; they are usually repeats but may differ in a detail not shown here. Identical values can stand only once. Like-named read-outs stand apart in the source and are kept apart here. Residues, ends and D or L forms follow the SMILES beside them. *: point of attachment. Myristoyl = CCCCCCCCCCCCCC(=O)*
Columns and labels:
NHBE cells = assay: PMA+8-Br-cGMP-induced mucin secretion from NHBE cells (ELISA); type: cell-based, human; settings: for Mucin secretion level relative to media control: pre- and co-incubation with 100 nM PMA+1 μM 8-Br-cGMP (Results-M-1A/M-3A)
Description: Peptide Blocking Studies—NHBE cells were preincubated with either the MANS or the RNS peptide (1-100 μM) for 15 min, and then PMA (100 nM)+8-Br-cGMP (1 μM) or UTP (100 μM) was added, and cells were incubated for an additional 15 min or 2 h. respectively. Mucin secretion was measured by ELISA and experimental results are designated as Results-I-2B-1 and Results-I-2B-2, as follows. […]
Measurement of Mucin Secretion by ELISA—Before collection of “base line” and “test” mucin samples, the accumulated mucus at the apical surface of the cells was removed by washing with phosphate-buffered saline, pH 7.2. To collect the base-line secretion, cells were incubated with medium alone, and secreted mucin in the apical medium was collected and reserved. Cells were rested for 24 h and then exposed to medium containing the selected stimulatory and/or inhibitory reagents (or appropriate controls), after which secreted mucin was collected and reserved as the test sample. Incubation times for the base line and the test were the same but varied depending on the test reagent utilized. Both base line and test secretions were analyzed by ELISA using an antibody capture method as known in the art. See, e.g., Harlow et al., Antibodies: A Laboratory Manual, pp. 570-573, Cold Spring Harbor Laboratory, Cold Spring Harbor, N.Y. (1988). The primary antibody for this assay was 17Q2 (Babco, Richmond, Calif.), a monoclonal antibody that reacts specifically with a carbohydrate epitope on human airway mucins. The ratio of test/base-line mucin, which is similar to a “secretory index”, was used to quantify mucin secretion, allowing each culture dish to serve as its own control and thus, minimizing deviation caused by variability among culture wells. Wright et al., Am. J. Physiol. 271, L854-L861 (1996). Levels of mucin secretion were reported as percentage of the medium control.
MARCKS-related Peptides—Both the myristoylated N-terminal sequence (MANS) and the random N-terminal sequence (RNS) peptides were synthesized at Genemed Synthesis, Inc. (San Francisco, Calif.), then purified by high pressure liquid chromatography (>95% pure), and confirmed by mass spectroscopy with each showing one single peak with an appropriate molecular mass. The MANS peptide consisted of sequence identical to the first 24 amino acids of MARCKS, i.e. the myristoylated N-terminal region that mediates MARCKS insertion into membranes, MA-[…] (SEQ ID NO: 1) (where MA=N-terminal myristate chain). The corresponding control peptide (RNS) contained the same amino acid composition as the MANS but arranged in random order, MA-[…] (SEQ ID NO: 26). The presence of the hydrophobic myristate moiety in these synthetic peptides enhances their permeability to the plasma membranes, enabling the peptides to be taken up readily by cells. To determine the effects of these peptides on mucin secretion, cells were preincubated with the peptides for 15 min prior to addition of secretagogues, and mucin secretion was then measured by ELISA.
Antisense Oligonucleotides—MARCKS antisense oligonucleotide and its corresponding control oligonucleotide were synthesized at Biognostik GmbH (Gottingen, Germany). NHBE cells were treated with 5 μM antisense or control oligonucleotide apically for 3 days (in the presence of 2 μg/ml lipofectin for the first 24 h). Cells were then incubated with secretagogues, and mucin secretion was measured by ELISA. Total RNA and protein were isolated from treated cells. MARCKS mRNA was assessed by Northern hybridization according to conventional procedures using human MARCKS cDNA as a probe. MARCKS protein level was determined by Western blot using purified anti-MARCKS IgG1 (clone 2F12) as the primary detection antibody.
The effect on mucus secretion of a myristoylated peptide containing the first 24 amino acids of the human MARCKS protein (MANS; myristoylated N-terminal sequence; SEQ ID NO: ) was tested. Cultured normal human bronchial epithelial cells as described above were used. […]

human neutrophils = assay: Human neutrophil chemotactic migration assay; type: cell-based; settings: test peptide 50 μM; for Neutrophil Migration (% Inhibition), LTB4: LTB4 100 nM; for Neutrophil Migration (% Inhibition), LTB4 / Neutrophil Migration (% Inhibition), fMLP: 0 = inactive; for Neutrophil Migration (% Inhibition), PAF: PAF 100 nM; for Neutrophil Migration (% Inhibition), fMLP: fMLP 100 nM
Description: Human neutrophils were isolated from heparinized whole blood collected from healthy adult donors via cephalic venipuncture by a slightly modified method as described by Akasaki et al., 1999 (Akasaki T, Koga H, and Sumimoto H., Phosphoinositide 3-kinase-dependent and -independent activation of the small GTPase Rac2 in human neutrophils, J. Biol. Chem. 274:18055-18059, 1999). The blood was mixed with dextran (final concentration 1.4% dextran) and then allowed to settle for 60 minutes, after which time the leukocyte rich plasma was collected and layered onto 5 mL of Ficoll-Paque PLUS in 15 ml, conical tubes. The plasma was centrifuged at 1800 rpm for 20 minutes at room temperature. The residual erythrocytes were lysed utilizing a hypotonic saline and the remaining neutrophils were re-suspended in Hank's balanced salt solution containing 20 mM HEPES and 8.9 mM sodium bicarbonate without calcium or magnesium (HBSS), yielding neutrophils that were greater than 98% pure and greater than 99% viable.
Neutrophil migration assay was performed according to the method described by Frevert C W, Wong V A, Goodman R B, Goodwin R, and Martin T R., Rapid fluorescence-based measurement of neutrophil migration in vitro, J. Immunol. Methods, 213:41-52, 1998. Human neutrophils were labeled with the fluorescent dye calcein for 30 minutes at room temperature. Cells were then washed and resuspended in a migration buffer containing HBSS with 2% FCS. Cells were treated with buffer alone or with the indicated test peptide (50 μM) for 30 minutes at 37° C. Treated cells (1×10^4 cells) were then placed on the upper side of a ChemoTx® chemotaxis plate (Neuroprobe, Gaithersburg, Md.) membrane (2 μm pore size). Lower wells of the plate were filled with migration buffer alone or with buffer containing fMLP (100 nM), LTB4 (100 nM), or PAF (100 nM). Wells containing 1×10^4 labeled cells were used as standards to calculate migration percentage. Cells were allowed to migrate for 1 hour at 37° C. After incubation, cells on the top of the filter were washed away with PBS. Followed by this, 0.5 mM EDTA was added to the top of the filter for 5 min to detach adherent cells and the membrane was again washed. The plate was then centrifuged at 1000 rpm for 1 min. The filter was removed and the fluorescence was measured in the lower wells (485 nm excitation, 530 nm emission wavelength) using an fMax fluorescence plate reader (Molecular Devices, Sunnyvale, Calif.). Percent migration was determined by dividing the fluorescence of each well by the fluorescence of the standard wells containing 1×10^4 labeled cells. A lesser number of migrated neutrophils in the bottom compartment is indicative of the test peptide being an inhibitor of inflammation.

[1] = peptide 1 μM, 15 min preincubation, then PMA 100 nM+8-Br-cGMP 1 μM 15 min (Results-I-2B-1)
[2] = peptide 10 μM, 15 min preincubation, then PMA 100 nM+8-Br-cGMP 1 μM 15 min (Results-I-2B-1)
[3] = peptide 100 μM, 15 min preincubation, then PMA 100 nM+8-Br-cGMP 1 μM 15 min (Results-I-2B-1)

CCCCCCCCCCCCCC(=O)NCC(=O)N[C@@H](C)C(=O)N[C@@H](CCC(N)=O)C(=O)N[C@@H](Cc1ccccc1)C(=O)N[C@@H](CO)C(=O)N[C@@H](CCCCN)C(=O)N[C@H](C(=O)N[C@@H](C)C(=O)N[C@@H](C)C(=O)N[C@@H](CCCCN)C(=O)NCC(=O)N[C@@H](CCC(=O)O)C(=O)N[C@@H](C)C(=O)N[C@@H](C)C(=O)N[C@@H](C)C(=O)N[C@@H](CCC(=O)O)C(=O)N[C@@H](CCCNC(=N)N)C(=O)N1CCC[C@H]1C(=O)NCC(=O)N[C@@H](CCC(=O)O)C(=O)N[C@@H](C)C(=O)N[C@@H](C)C(=O)N[C@H](C(=O)N[C@@H](C)C(=O)O)C(C)C)[C@@H](C)O [MANS peptide] (Myristoyl-GAQFSKTAAKGEAAAERPGEAAVA-OH; C-terminus assumed)
Relative mucin secretion level referenced to stimulated level (M-3A-3) as 100% (NHBE cells; peptide 1 μM): 90%
Mucin secretion as % of control (NHBE cells; [1]): 188%
Mucin secretion level relative to media control (NHBE cells; peptide 1 μM): 171%
Relative mucin secretion level referenced to stimulated level (M-3A-3) as 100% (NHBE cells; peptide 10 μM): 61%
Mucin secretion as % of control (NHBE cells; [2]): 129%
Mucin secretion level relative to media control (NHBE cells; peptide 10 μM): 117%
Relative mucin secretion level referenced to stimulated level (M-3A-3) as 100% (NHBE cells; peptide 100 μM): 16%
Mucin secretion as % of control (NHBE cells; [3]): 35%
Mucin secretion level relative to media control (NHBE cells; peptide 100 μM): 29% and 30%
Neutrophil Migration (% Inhibition), LTB4 (human neutrophils): 91.8%
Neutrophil Migration (% Inhibition), PAF (human neutrophils): 86.4%
Neutrophil Migration (% Inhibition), fMLP (human neutrophils): 90.0%

CCCCCCCCCCCCCC(=O)NCC(=O)N[C@H](C(=O)N[C@@H](C)C(=O)N1CCC[C@H]1C(=O)N[C@@H](C)C(=O)N[C@@H](C)C(=O)N[C@@H](CCC(=O)O)C(=O)NCC(=O)N[C@@H](C)C(=O)NCC(=O)N[C@@H](C)C(=O)N[C@@H](CCC(=O)O)C(=O)N[C@H](C(=O)N[C@@H](CCCCN)C(=O)N[C@@H](CCCNC(=N)N)C(=O)N[C@@H](C)C(=O)N[C@@H](CO)C(=O)N[C@@H](C)C(=O)N[C@@H](CCC(=O)O)C(=O)N[C@@H](C)C(=O)N[C@@H](CCCCN)C(=O)N[C@@H](CCC(N)=O)C(=O)N[C@@H](C)C(=O)N[C@@H](Cc1ccccc1)C(=O)O)C(C)C)[C@@H](C)O [RNS peptide, reference compound] (Myristoyl-GTAPAAEGAGAEVKRASAEAKQAF-OH; C-terminus assumed)
Mucin secretion as % of control (NHBE cells; [1]): 216%
Mucin secretion as % of control (NHBE cells; [2]): 208%
Mucin secretion as % of control (NHBE cells; [3]): 206%
Neutrophil Migration (% Inhibition), LTB4 (human neutrophils): 0%
Neutrophil Migration (% Inhibition), PAF (human neutrophils): 62.1%
Neutrophil Migration (% Inhibition), fMLP (human neutrophils): 0.7%

CCCCCCCCCCCCCC(=O)NCC(=O)N[C@@H](C)C(=O)N[C@@H](CCC(N)=O)C(=O)N[C@@H](Cc1ccccc1)C(=O)N[C@@H](CO)C(=O)N[C@@H](CCCCN)C(=O)N[C@H](C(=O)N[C@@H](C)C(=O)N[C@@H](C)C(=O)N[C@@H](CCCCN)C(=O)NCC(=O)N[C@@H](CCC(=O)O)C(=O)O)[C@@H](C)O [SEQ ID NO: 13, N-myristoyl-GAQFSKTAAKGE] (Myristoyl-GAQFSKTAAKGE-OH; C-terminus assumed)
Neutrophil Migration (% Inhibition), LTB4 (human neutrophils): 82.7%
Neutrophil Migration (% Inhibition), PAF (human neutrophils): 85.7%
Neutrophil Migration (% Inhibition), fMLP (human neutrophils): 81.8%

CCCCCCCCCCCCCC(=O)NCC(=O)N[C@@H](C)C(=O)N[C@@H](CCC(N)=O)C(=O)N[C@@H](Cc1ccccc1)C(=O)N[C@@H](CO)C(=O)N[C@@H](CCCCN)C(=O)N[C@H](C(=O)N[C@@H](C)C(=O)N[C@@H](C)C(=O)N[C@@H](CCCCN)C(=O)O)[C@@H](C)O [SEQ ID NO: 15, N-myristoyl-GAQFSKTAAK] (Myristoyl-GAQFSKTAAK-OH; C-terminus assumed)
Neutrophil Migration (% Inhibition), LTB4 (human neutrophils): 85.5%
Neutrophil Migration (% Inhibition), PAF (human neutrophils): 87.2%
Neutrophil Migration (% Inhibition), fMLP (human neutrophils): 88.6%

C[C@@](O)(/C=C/[C@H]1CC=CC(=O)O1)[C@@H](C[C@@H](O)\C=C/C=C\C=C\CO)OP(=O)(O)O [fostriecin]
activity at 0.001 µM (NHBE cells; Homo sapiens, NHBE, inhibitor 1 nM, 15 min preincubation, then PMA 100 nM+8-Br-cGMP 1 μM 15 min, read-out: Mucin secretion as % of control): 198%
activity at 0.01 µM (NHBE cells; Homo sapiens, NHBE, inhibitor 10 nM, 15 min preincubation, then PMA 100 nM+8-Br-cGMP 1 μM 15 min, read-out: Mucin secretion as % of control): 182%
activity at 0.1 µM (NHBE cells; Homo sapiens, NHBE, inhibitor 100 nM, 15 min preincubation, then PMA 100 nM+8-Br-cGMP 1 μM 15 min, read-out: Mucin secretion as % of control): 170%
activity at 0.5 µM (NHBE cells; Homo sapiens, NHBE, inhibitor 500 nM, 15 min preincubation, then PMA 100 nM+8-Br-cGMP 1 μM 15 min, read-out: Mucin secretion as % of control): 134%

C=C1[C@@H](O)[C@@H]2O[C@]3(CC[C@H](/C=C/[C@@H](C)[C@@H]4CC(C)=C[C@@]5(O[C@H](C[C@@](C)(O)C(=O)O)CC[C@H]5O)O4)O3)CC[C@H]2O[C@@H]1[C@@H](O)C[C@H](C)[C@H]1O[C@@]2(CCCCO2)CC[C@H]1C [okadaic acid]
activity at 0.5 µM (NHBE cells; Homo sapiens, NHBE, read-out: Mucin secretion as % of control, inhibitor 500 nM, 15 min preincubation, then PMA 100 nM+8-Br-cGMP 1 μM 15 min): 157%
Reduction in mucin secretion level from PMA+8-Br-cGMP-stimulated level (NHBE cells; inhibitor 500 nM): 27%
Mucin secretion as % of control (NHBE cells; inhibitor 500 nM, 15 min preincubation, then PMA 100 nM+8-Br-cGMP 1 μM 15 min): 155%

TNF-α
Mucin secretion level, % of control (NHBE cells; TNF-α 10 ng/ml 4 h, then PMA 100 nM+8-Br-cGMP 1 μM 15 min): 255%
